Patent publication US20220202905A1, “COMPOSITION FOR PREVENTING OR TREATING NEUROTROPHIC KERATITIS WHICH CONTAINS PACAP PEPTIDE OR STABILIZED PACAP PEPTIDE” (SENJU PHARMACEUTICAL CO., LTD., priority 2019, published 2022)
Square brackets hold non-standard residues; d marks the D form. Peptide text beside a SMILES is read from it. Ala(1H-tetrazol-5-yl) = N[C@@H](Cc1nnn[nH]1)C(=O)O

Legend:
[1] = Peptide stability test, phosphate buffer (pH 7.0), 40° C. storage, HPLC remaining rate; type: physicochemical; details: Table 4; 100 μM in phosphate buffer pH 7.0; HPLC conditions 1
Experimental: Peptides 1 and 3 to 5 synthesized in Example 2 were weighed and dissolved in phosphate buffer (pH 7.0) to prepare 1.0 mM peptide solutions. The 1.0 mM peptide solutions were then diluted with phosphate buffer to 100 μM. After filtering with Chromatdisk (product of Merck Millipore, Millex-GV, 0.22 μm), each filtrate was dispensed into an LC vial (Waters Deactivated […] prepared peptide solutions were incubated for one month or 2 months in a 40° C. thermostatic bath to obtain stored samples. A simultaneously prepared sample among the peptide solutions that was not stored was used as a standard sample (initial sample). The standard sample and the stored samples were stored at -30° C. until sample analysis. Using the total weight of the aqueous peptide solution and storage vessel as the specimen weight, measurements were recorded as the specimen weights before storage and the specimen weights after storage under different storage conditions. The empty weight of the storage vessel was also measured, and the moisture permeability was determined by the following formula. After stirring the standard sample and the stored samples with a vortex mixer, each peptide solution was transferred to an HPLC vial (Deactivated Qsert vial by Waters Co.). Reverse-phase HPLC (HPLC system: Prominence by Shimadzu Corp.) was conducted under the conditions shown in Table 3 below for analysis of the peptide solutions, and chromatograms were obtained. Guard column: XSelect CSH C18 by Waters Co., 5 μm, 4.6×20 mm Guard Cartridge Detection wavelength: 220 nm Mobile phase A: 0.1% formic acid aqueous solution Mobile phase B: 0.1% acetonitrile formate solution Measuring time: 30 minutes Measuring sample injection rate: 50 μL Flow rate: 1.0 mL/min Sample cooler: 4° C. Column temperature: 40° C. Mobile phase delivery: The mixing ratio of mobile phase A and mobile phase B was varied as shown in Table 3 for linear concentration gradient control. The peak area value for the peptide in the chromatogram was calculated, and the remaining rate (remaining rate before correction for water) was calculated using formula (2). The remaining rate after correction for water was also calculated from the remaining rate before correction for water using formula (3), taking into account the moisture permeability of the vessel. Peptides 10 and 11 synthesized in Example 2 were weighed and dissolved in phosphate buffer (pH 7.0) to prepare 1.0 mM peptide solutions. Each solution was filtered with a Chromatdisk (product of Merck Millipore. Millex-GV, 0.22 μm). Each filtrate was diluted to 100 μM with phosphate buffer (pH 7.0) and dispensed into a tube (Protein LoBind Tube by Eppendorf Co.). The prepared peptide solutions were incubated for one month or 2 months in a 40° C. thermostatic bath to obtain stored samples. A simultaneously prepared sample among the peptide solutions that was not stored was used as a standard sample (initial sample). The standard sample and the stored samples were stored at -30° C. until sample analysis. The remaining rate after correction for water for each peptide among the stored samples was measured in the same manner as Example 4, and the results are shown in Table 8.

[2] = Peptide stability test, Tris buffer (pH 7.0), 60° C. storage, HPLC remaining rate; type: physicochemical; details: Table 6; 100 μM in Tris buffer pH 7.0; HPLC conditions 2
How it was run: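 Peptides at 100 μM in Tris buffer (pH 7.0) stored 1 or 2 weeks at 60° C.; unstored sample kept at −30° C. as initial reference. Remaining peptide quantified by reversed-phase HPLC at 220 nm (formic acid/acetonitrile gradient, 40° C. column), as water-corrected remaining rate.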

remaining rate after correction for water, 40° C., 1 month preservation [1] | remaining rate after correction for water, 40° C., 2 months preservation [1] | remaining rate after correction for water, 60° C., 1 week preservation [2] | remaining rate after correction for water, 60° C., 2 weeks preservation [2] | Compound
37.4% | 21.3% | – | – | CC[C@H](C)[C@H](NC(=O)CNC(=O)[C@H](CC(=O)O)NC(=O)[C@H](CO)NC(=O)[C@@H](N)Cc1cnc[nH]1)C(=O)N[C@@H](Cc1ccccc1)C(=O)N[C@H](C(=O)N[C@@H](CC(=O)O)C(=O)N[C@@H](CO)C(=O)N[C@@H](Cc1ccc(O)cc1)C(=O)N[C@@H](CO)C(=O)N[C@@H](CCCNC(=N)N)C(=O)N[C@@H](Cc1ccc(O)cc1)C(=O)N[C@@H](CCCNC(=N)N)C(=O)N[C@@H](CCCCN)C(=O)N[C@@H](CCC(N)=O)C(=O)N[C@@H](CCSC)C(=O)N[C@@H](C)C(=O)N[C@H](C(=O)N[C@@H](CCCCN)C(=O)N[C@@H](CCCCN)C(=O)N[C@@H](Cc1ccc(O)cc1)C(=O)N[C@@H](CC(C)C)C(=O)N[C@@H](C)C(=O)N[C@@H](C)C(=O)N[C@H](C(=O)N[C@@H](CC(C)C)C(N)=O)C(C)C)C(C)C)[C@@H](C)O [Peptide 1, reference compound]
– | – | 98.4% | 92.8% | CC[C@H](C)[C@H](NC(=O)CNC(=O)[C@H](Cc1nnn[nH]1)NC(=O)[C@H](CO)NC(=O)[C@H](Cc1c[nH]cn1)NC(C)=O)C(=O)N[C@@H](Cc1ccccc1)C(=O)N[C@H](C(=O)N[C@@H](Cc1nnn[nH]1)C(=O)N[C@@H](CO)C(=O)N[C@@H](Cc1ccc(O)cc1)C(=O)N[C@@H](CO)C(=O)N[C@@H](CCCNC(=N)N)C(=O)N[C@@H](Cc1ccc(O)cc1)C(=O)N[C@@H](CCCNC(=N)N)C(=O)N[C@@H](CCCCN)C(=O)N[C@@H](CCC(N)=O)C(=O)N[C@@H](CC(C)C)C(=O)N[C@@H](C)C(=O)N[C@H](C(=O)N[C@@H](CCCCN)C(=O)N[C@@H](CCCCN)C(=O)N[C@@H](Cc1ccc(O)cc1)C(=O)N[C@@H](CC(C)C)C(=O)N[C@@H](C)C(=O)N[C@@H](C)C(=O)N[C@H](C(=O)N[C@@H](CC(C)C)C(N)=O)C(C)C)C(C)C)[C@@H](C)O [Peptide 9] (Ac-HS[Ala(1H-tetrazol-5-yl)]GIFT[Ala(1H-tetrazol-5-yl)]SYSRYRKQLAVKKYLAAVL-NH2)
